Experimental data reported in patent publication US9802921B2, “Fluoromethyl-substituted pyrrole carboxamides iv” (Grünenthal GmbH, priority 2013, dated 2017).

Molecular target: T1, Human CaV2.2 channels (Homo sapiens, UniProt Q00975)
T1 construct: expressed in transfected cells
Experiment: Fluorescent assay for CaV2.2 channels using potassium depolarization to induce channel opening (FLIPR, Fluo 4)
Type: cell-based
Details: read-out: Activity Category: %-Inhib (CaV2.2) @3 μM @30 mM KCl; 3 μM test compound; 30 mM KCl as printed; HEK293 cells stably expressing human CaV2.2
Source text: In the process, the Ca^2+ influx is quantified in the FLIPR assay with the aid of a Ca^2+-sensitive dye (type Fluo-4, Molecular Probes Europe BV, Leiden, the Netherlands) in a fluorescent imaging plate reader (FLIPR 3, Molecular Devices, Sunnyvale, USA), as described hereinafter.
Human CaV2.2 channels were stably expressed in HEK293 cells together with alpha2-delta and beta subunits of voltage gated calcium channels. In addition, an inwardly rectifying potassium channel (Kir2.3) was stably expressed in these cells to augment control of the cell membrane potential by the concentration of extracellular potassium ions. Raise of the extracellular potassium concentration leads to depolarization of the membrane potential and thus regulates the voltage dependent state of CaV2.2 channels. For preparation, cells were seeded in black poly-D-lysine coated 96-well plates (Becton Dickinson, Biocoat 4640) in 100 μL medium [500 mL DMEM/F-12 plus Glutamax (Invitrogen 31331-093) plus 5.5 mL MEM NEAA 100× (Invitrogen 11140-035) plus 50 mL FBS decomplemented (Invitrogen 10270-106) plus 200 μg/mL Geneticin (Invitrogen 10131-027) plus 50 μg/mL Hygromycin B (Invitrogen 10687-010) plus 2 μg/mL Blasticidin (anti-bl5b Invivo-Gen) plus 0.2 μg/mL Puromycin (A 11138-03)] at a cell density of 30.000 cells per well. Plates were incubated at 37° C. (5% CO2) for 20 to 23 h. On the day of experiment medium was discarded and cells were loaded with Fluo 4 by addition of 100 μL of basic assay buffer (10 mM HEPES, 1 mM KCl, 149 mM NaCl, 0.8 mM CaCl2, 1.7 mM MgCl2, 10 mM Glucose, 0.1% BSA. pH 7.4) containing 2 μM Fluo 4 (Molecular Probes; F-14201), 0.01% pluronic acid (Molecular Probes; P-6866) and 2.5 mM probenecid (Molecular Probes; P36400). Cells were incubated in the dark at 25° C. for 60 min. Then dye containing buffer was discarded and 100 μL basic (1 mM KCl) or alternative (30 mM KCl) assay buffer was added. The alternative assay buffer contained altered concentrations of KCl (30 mM) and NaCl (120 mM) and was used in order to promote the inactivated channel state. After that 25 μL of basic or alternative assay buffer with or without test compound were added and cells were incubated again in the dark at 25° C. for 15 min. Fluorescence intensity was measured on a FLIPR 3 instrument (Molecular Devices Corp., Sunnyvale, Calif.) with excitation at 480 nm and emission at 535 nm. After continuously reading fluorescence for 30 sec, 50 μL of basic assay buffer containing 210 mM KCl (NaCl omitted) were added for depolarization. Peak fluorescent signal intensity was determined and the amplitude of the peak signal, normalized to base line, was used to measure channel inhibition by test compounds.

T1 sequence (Q00975 whole entry): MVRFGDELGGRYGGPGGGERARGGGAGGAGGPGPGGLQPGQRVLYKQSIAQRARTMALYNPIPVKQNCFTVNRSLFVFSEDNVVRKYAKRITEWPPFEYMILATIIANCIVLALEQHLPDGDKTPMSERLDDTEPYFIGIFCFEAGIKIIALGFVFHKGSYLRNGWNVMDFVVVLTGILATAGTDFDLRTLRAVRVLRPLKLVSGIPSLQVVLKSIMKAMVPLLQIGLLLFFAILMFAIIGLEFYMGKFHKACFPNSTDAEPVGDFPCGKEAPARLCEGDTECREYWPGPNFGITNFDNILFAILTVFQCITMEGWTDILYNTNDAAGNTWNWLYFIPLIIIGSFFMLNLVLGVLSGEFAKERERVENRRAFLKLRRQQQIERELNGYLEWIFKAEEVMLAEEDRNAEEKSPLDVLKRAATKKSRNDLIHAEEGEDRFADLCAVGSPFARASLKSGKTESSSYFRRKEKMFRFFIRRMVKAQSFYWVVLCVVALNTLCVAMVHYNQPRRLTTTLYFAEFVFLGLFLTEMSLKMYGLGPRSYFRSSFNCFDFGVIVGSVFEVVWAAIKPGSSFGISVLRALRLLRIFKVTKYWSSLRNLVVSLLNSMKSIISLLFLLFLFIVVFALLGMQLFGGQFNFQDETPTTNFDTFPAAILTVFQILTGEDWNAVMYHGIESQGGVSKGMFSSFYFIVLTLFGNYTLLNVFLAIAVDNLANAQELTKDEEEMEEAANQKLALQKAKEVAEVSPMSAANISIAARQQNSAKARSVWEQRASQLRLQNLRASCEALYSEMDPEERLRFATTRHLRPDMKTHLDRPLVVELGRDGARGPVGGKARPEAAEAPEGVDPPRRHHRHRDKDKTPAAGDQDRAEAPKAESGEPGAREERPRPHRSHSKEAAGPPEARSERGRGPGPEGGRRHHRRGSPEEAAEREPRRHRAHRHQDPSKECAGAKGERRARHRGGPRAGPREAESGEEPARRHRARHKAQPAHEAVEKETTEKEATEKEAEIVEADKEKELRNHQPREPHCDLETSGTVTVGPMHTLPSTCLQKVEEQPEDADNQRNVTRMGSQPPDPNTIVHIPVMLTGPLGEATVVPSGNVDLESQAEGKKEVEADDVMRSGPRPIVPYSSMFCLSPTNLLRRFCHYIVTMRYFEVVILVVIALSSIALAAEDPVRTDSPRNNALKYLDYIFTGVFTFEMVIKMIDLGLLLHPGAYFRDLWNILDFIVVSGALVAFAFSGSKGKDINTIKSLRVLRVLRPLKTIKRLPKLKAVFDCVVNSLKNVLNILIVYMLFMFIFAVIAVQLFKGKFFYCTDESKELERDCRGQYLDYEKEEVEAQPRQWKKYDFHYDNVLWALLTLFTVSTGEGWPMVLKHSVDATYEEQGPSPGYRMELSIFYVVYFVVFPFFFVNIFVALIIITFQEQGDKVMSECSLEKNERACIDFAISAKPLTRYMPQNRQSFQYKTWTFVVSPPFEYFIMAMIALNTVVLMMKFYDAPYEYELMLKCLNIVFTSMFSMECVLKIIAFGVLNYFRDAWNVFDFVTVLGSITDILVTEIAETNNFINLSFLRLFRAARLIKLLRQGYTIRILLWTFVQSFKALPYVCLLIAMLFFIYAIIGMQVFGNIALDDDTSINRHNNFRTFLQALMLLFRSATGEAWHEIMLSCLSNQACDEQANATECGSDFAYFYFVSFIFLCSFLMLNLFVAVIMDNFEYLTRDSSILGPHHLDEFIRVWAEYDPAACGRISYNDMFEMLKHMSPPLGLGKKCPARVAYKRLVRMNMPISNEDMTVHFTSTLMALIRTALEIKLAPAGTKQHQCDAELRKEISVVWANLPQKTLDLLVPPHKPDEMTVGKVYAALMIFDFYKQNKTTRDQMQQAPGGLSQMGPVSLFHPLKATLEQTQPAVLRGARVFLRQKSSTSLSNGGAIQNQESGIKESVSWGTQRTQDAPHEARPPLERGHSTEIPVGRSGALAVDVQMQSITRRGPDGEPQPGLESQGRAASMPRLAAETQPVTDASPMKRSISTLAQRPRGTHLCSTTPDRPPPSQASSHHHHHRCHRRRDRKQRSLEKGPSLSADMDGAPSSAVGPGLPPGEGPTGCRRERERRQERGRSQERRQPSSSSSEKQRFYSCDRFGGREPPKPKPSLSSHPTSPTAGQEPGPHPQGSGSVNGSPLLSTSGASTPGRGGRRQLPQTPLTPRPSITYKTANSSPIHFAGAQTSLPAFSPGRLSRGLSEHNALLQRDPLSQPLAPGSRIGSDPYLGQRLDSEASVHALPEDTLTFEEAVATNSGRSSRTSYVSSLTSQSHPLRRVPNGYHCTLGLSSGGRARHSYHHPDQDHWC
T1 sequence (P54289 25-1103, further chain): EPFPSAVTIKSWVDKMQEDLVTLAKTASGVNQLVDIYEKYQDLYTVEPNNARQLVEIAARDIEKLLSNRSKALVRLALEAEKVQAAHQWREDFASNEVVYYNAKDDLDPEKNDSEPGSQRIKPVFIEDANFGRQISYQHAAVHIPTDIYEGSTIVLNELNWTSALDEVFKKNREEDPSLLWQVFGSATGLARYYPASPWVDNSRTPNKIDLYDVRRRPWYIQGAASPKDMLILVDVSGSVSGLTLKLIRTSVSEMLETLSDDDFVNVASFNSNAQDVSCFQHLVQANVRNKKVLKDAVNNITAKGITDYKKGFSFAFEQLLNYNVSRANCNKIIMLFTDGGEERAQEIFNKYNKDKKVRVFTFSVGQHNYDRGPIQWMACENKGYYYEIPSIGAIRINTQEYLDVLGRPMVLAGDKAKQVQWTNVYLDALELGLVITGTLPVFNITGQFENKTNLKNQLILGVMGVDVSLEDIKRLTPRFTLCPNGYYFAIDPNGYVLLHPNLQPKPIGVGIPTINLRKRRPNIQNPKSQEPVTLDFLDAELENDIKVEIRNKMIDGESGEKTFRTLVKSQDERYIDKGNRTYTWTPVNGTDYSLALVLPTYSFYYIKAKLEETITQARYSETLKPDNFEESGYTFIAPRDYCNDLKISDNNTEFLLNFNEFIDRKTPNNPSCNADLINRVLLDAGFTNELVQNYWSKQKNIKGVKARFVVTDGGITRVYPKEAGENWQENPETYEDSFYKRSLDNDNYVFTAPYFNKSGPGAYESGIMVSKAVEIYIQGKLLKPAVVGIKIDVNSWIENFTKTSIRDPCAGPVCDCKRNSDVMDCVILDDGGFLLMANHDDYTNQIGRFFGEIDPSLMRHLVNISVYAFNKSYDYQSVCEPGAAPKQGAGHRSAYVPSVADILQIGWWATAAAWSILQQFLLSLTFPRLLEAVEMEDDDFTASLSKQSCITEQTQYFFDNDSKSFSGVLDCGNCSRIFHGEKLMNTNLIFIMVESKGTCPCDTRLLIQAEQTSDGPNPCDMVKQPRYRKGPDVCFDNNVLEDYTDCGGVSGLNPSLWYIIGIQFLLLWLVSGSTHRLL
T1 sequence (P54284 whole entry, further chain): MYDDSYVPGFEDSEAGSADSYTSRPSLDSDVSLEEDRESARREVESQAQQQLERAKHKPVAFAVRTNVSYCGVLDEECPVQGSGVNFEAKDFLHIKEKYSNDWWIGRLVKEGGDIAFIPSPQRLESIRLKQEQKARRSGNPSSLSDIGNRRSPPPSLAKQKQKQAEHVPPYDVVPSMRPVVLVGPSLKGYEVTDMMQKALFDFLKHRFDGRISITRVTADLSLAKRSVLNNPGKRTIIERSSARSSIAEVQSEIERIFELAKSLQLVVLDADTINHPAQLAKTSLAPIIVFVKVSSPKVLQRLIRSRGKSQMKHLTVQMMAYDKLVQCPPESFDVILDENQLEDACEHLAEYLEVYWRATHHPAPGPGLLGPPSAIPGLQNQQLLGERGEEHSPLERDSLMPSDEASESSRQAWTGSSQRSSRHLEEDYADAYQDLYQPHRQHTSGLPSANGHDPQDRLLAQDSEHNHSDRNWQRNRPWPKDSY

## CN(CC(C)(C)C)C(=O)c1c(-c2ccc(Cl)cc2)cc(C(F)(F)F)n1Cc1ccc(F)cn1 [Example 029, 3-(4-Chlorophenyl)-N-(2,2-dimethyl-propyl)-1-[(5-fluoro-pyridin-2-yl)-methyl]-N-methyl-5-(trifluoromethyl)-1H-pyrrole-2-carboxylic acid amide]
  inhibition at 3 µM: > 95%

## Cc1cnc(Cn2c(C(F)(F)F)cc(-c3ccc(Cl)cc3)c2C(=O)N(C)CC(C)(C)C)cn1 [Example 030, 3-(4-Chlorophenyl)-N-(2,2-dimethyl-propyl)-N-methyl-1-[(5-methyl-pyrazin-2-yl)-methyl]-5-(trifluoromethyl)-1H-pyrrole-2-carboxylic acid amide]
  inhibition at 3 µM: > 95%

## CC1(C)CN(C(=O)c2c(-c3ccc(F)cc3)cc(C(F)(F)F)n2Cc2ncccn2)CCO1 [Example 031, (2,2-Dimethyl-morpholin-4-yl)-[3-(4-fluorophenyl)-1-(pyrimidin-2-yl-methyl)-5-(trifluoromethyl)-1H-pyrrol-2-yl]-methanone]
  inhibition at 3 µM: 40 to 75%

## CN(CC(C)(C)C)C(=O)c1c(-c2ccc(Cl)cc2)cc(C(F)(F)F)n1Cc1ccnc(C(F)(F)F)n1 [Example 033, 3-(4-Chlorophenyl)-N-(2,2-dimethyl-propyl)-N-methyl-5-(trifluoromethyl)-1-[[2-(trifluoromethyl)-pyrimidin-4-yl]-methyl]-1H-pyrrole-2-carboxylic acid amide]
  inhibition at 3 µM: 40 to 75%

## Cc1ncc(Cn2c(C(F)(F)F)cc(-c3ccc(Cl)cc3)c2C(=O)N(C)CC(C)(C)C)cn1 [Example 034, 3-(4-Chlorophenyl)-N-(2,2-dimethyl-propyl)-N-methyl-1-[(2-methyl-pyrimidin-5-yl)-methyl]-5-(trifluoromethyl)-1H-pyrrole-2-carboxylic acid amide]
  inhibition at 3 µM: 75 to 95%

## Cc1ccnc(Cn2c(C(F)(F)F)cc(-c3ccc(Cl)cc3)c2C(=O)N(C)CC(C)(C)C)n1 [Example 036, 3-(4-Chlorophenyl)-N-(2,2-dimethyl-propyl)-N-methyl-1-[(4-methyl-pyrimidin-2-yl)-methyl]-5-(trifluoromethyl)-1H-pyrrole-2-carboxylic acid amide]
  inhibition at 3 µM: > 95%

## CN(CC(C)(C)C)C(=O)c1c(-c2ccc(Cl)cc2)cc(C(F)(F)F)n1Cc1ncccn1 [Example 037, 3-(4-Chlorophenyl)-N-(2,2-dimethyl-propyl)-N-methyl-1-(pyrimidin-2-yl-methyl)-5-(trifluoromethyl)-1H-pyrrole-2-carboxylic acid amide]
  inhibition at 3 µM: > 95%

## Cc1c(-c2ccc(Cl)cc2)c(C(=O)N(C)CCS(C)(=O)=O)n(Cc2ccc(F)cn2)c1C(F)(F)F [Example 038, 3-(4-Chlorophenyl)-1-[(5-fluoro-pyridin-2-yl)-methyl]-N,4-dimethyl-N-(2-methylsulfonyl-ethyl)-5-(trifluoromethyl)-1H-pyrrole-2-carboxylic acid amide]
  inhibition at 3 µM: > 95%

## Cc1c(-c2ccc(Cl)cc2)c(C(=O)N(C)CCS(C)(=O)=O)n(Cc2ncccn2)c1C(F)(F)F [Example 039, 3-(4-Chlorophenyl)-N,4-dimethyl-N-(2-methylsulfonyl-ethyl)-1-(pyrimidin-2-yl-methyl)-5-(trifluoromethyl)-1H-pyrrole-2-carboxylic acid amide]
  inhibition at 3 µM: 75 to 95%

## Cc1c(-c2ccc(Cl)cc2)c(C(=O)N2CCOC(C)(C)C2)n(Cc2ncccn2)c1C(F)(F)F [Example 040, [3-(4-Chlorophenyl)-4-methyl-1-(pyrimidin-2-yl-methyl)-5-(trifluoromethyl)-1H-pyrrol-2-yl]-(2,2-dimethyl-morpholin-4-yl)-methanone]
  inhibition at 3 µM: 75 to 95%

## COc1cccc(Cn2c(C(=O)N3CCOCC3)c(-c3ccc(Cl)cc3)c(C)c2C(F)(F)F)n1 [Example 041, [3-(4-Chlorophenyl)-1-[(6-methoxy-pyridin-2-yl)-methyl]-4-methyl-5-(trifluoromethyl)-1H-pyrrol-2-yl]-morpholin-4-yl-methanone]
  inhibition at 3 µM: > 95%

## Cc1cnc(Cn2c(C(=O)N3CCOCC3)c(-c3ccc(Cl)cc3)c(C)c2C(F)(F)F)cn1 [Example 042, [3-(4-Chlorophenyl)-4-methyl-1-[(5-methyl-pyrazin-2-yl)-methyl]-5-(trifluoromethyl)-1H-pyrrol-2-yl]-morpholin-4-yl-methanone]
  inhibition at 3 µM: > 95%

## Cc1ncc(Cn2c(C(=O)N3CCOCC3)c(-c3ccc(Cl)cc3)c(C)c2C(F)(F)F)cn1 [Example 043, [3-(4-Chlorophenyl)-4-methyl-1-[(2-methyl-pyrimidin-5-yl)-methyl]-5-(trifluoromethyl)-1H-pyrrol-2-yl]-morpholin-4-yl-methanone]
  inhibition at 3 µM: 75 to 95%

## Cc1c(-c2ccc(Cl)cc2)c(C(=O)N2CCOCC2)n(Cc2ccc(F)cn2)c1C(F)(F)F [Example 044, [3-(4-Chlorophenyl)-1-[(5-fluoro-pyridin-2-yl)-methyl]-4-methyl-5-(trifluoromethyl)-1H-pyrrol-2-yl]-morpholin-4-yl-methanone]
  inhibition at 3 µM: > 95%

## Cc1cnc(Cn2c(C(=O)N3CCOCC3)c(-c3ccc(Cl)cc3)c(C)c2C(F)(F)F)nc1 [Example 045, [3-(4-Chlorophenyl)-4-methyl-1-[(5-methyl-pyrimidin-2-yl)-methyl]-5-(trifluoromethyl)-1H-pyrrol-2-yl]-morpholin-4-yl-methanone]
  inhibition at 3 µM: > 95%

## Cc1ccnc(Cn2c(C(=O)N3CCOCC3)c(-c3ccc(Cl)cc3)c(C)c2C(F)(F)F)n1 [Example 046, [3-(4-Chlorophenyl)-4-methyl-1-[(4-methyl-pyrimidin-2-yl)-methyl]-5-(trifluoromethyl)-1H-pyrrol-2-yl]-morpholin-4-yl-methanone]
  inhibition at 3 µM: > 95%

## Cc1c(-c2ccc(Cl)cc2)c(C(=O)N2CCOCC2)n(Cc2ncccn2)c1C(F)(F)F [Example 047, [3-(4-Chlorophenyl)-4-methyl-1-(pyrimidin-2-yl-methyl)-5-(trifluoromethyl)-1H-pyrrol-2-yl]-morpholin-4-yl-methanone]
  inhibition at 3 µM: > 95%

## Cc1c(-c2ccc(Cl)cc2)c(C(=O)NC2CC2)n(Cc2ncccn2)c1C(F)(F)F [Example 048, 3-(4-Chlorophenyl)-N-cyclopropyl-4-methyl-1-(pyrimidin-2-yl-methyl)-5-(trifluoromethyl)-1H-pyrrole-2-carboxylic acid amide]
  inhibition at 3 µM: 40 to 75%

## Cc1c(-c2ccc(Cl)cc2)c(C(=O)N(C)CC(C)(C)C)n(-c2cnccn2)c1C(F)(F)F [Example 049, 3-(4-Chlorophenyl)-N-(2,2-dimethyl-propyl)-N,4-dimethyl-1-pyrazin-2-yl-5-(trifluoromethyl)-1H-pyrrole-2-carboxylic acid amide]
  inhibition at 3 µM: 75 to 95%

## Cc1c(-c2ccc(Cl)cc2)c(C(=O)N2CC(F)(F)C2)n(-c2cnccn2)c1C(F)(F)F [Example 050, [3-(4-Chlorophenyl)-4-methyl-1-pyrazin-2-yl-5-(trifluoromethyl)-1H-pyrrol-2-yl]-(3,3-difluoro-azetidin-1-yl)-methanone]
  inhibition at 3 µM: 75 to 95%

## Cc1c(-c2ccc(Cl)cc2)c(C(=O)N2CC(C)(O)C2)n(-c2cnccn2)c1C(F)(F)F [Example 051, [3-(4-Chlorophenyl)-4-methyl-1-pyrazin-2-yl-5-(trifluoromethyl)-1H-pyrrol-2-yl]-(3-hydroxy-3-methyl-azetidin-1-yl)-methanone]
  inhibition at 3 µM: 40 to 75%

## Cc1c(-c2ccc(Cl)cc2)c(C(=O)N2CCOCC2)n(Cc2cncnc2)c1C(F)(F)F [Example 052, [3-(4-Chlorophenyl)-4-methyl-1-(pyrimidin-5-yl-methyl)-5-(trifluoromethyl)-1H-pyrrol-2-yl]-morpholin-4-yl-methanone]
  inhibition at 3 µM: 40 to 75%

## Cc1c(-c2ccc(Cl)cc2)c(C(=O)N2CCOCC2)n(Cc2ccc[nH]c2=O)c1C(F)(F)F [Example 053, 3-[[3-(4-Chlorophenyl)-4-methyl-2-(morpholine-4-carbonyl)-5-(trifluoromethyl)-1H-pyrrol-1-yl]-methyl]-1H-pyridin-2-one]
  inhibition at 3 µM: 40 to 75%

## Cc1c(-c2ccc(Cl)cc2)c(C(=O)N2CCOCC2)n(Cc2cccc(=O)[nH]2)c1C(F)(F)F [Example 054, 6-[[3-(4-Chlorophenyl)-4-methyl-2-(morpholine-4-carbonyl)-5-(trifluoromethyl)-1H-pyrrol-1-yl]-methyl]-1H-pyridin-2-one]
  inhibition at 3 µM: 75 to 95%
